Assay results taken from US11407767B2, “Heterocyclyl substituted pyrrolopyridines that are inhibitors of the CDK12 kinase” (The University of Nottingham, priority 2017, dated 2022).
Counter-ions that a name gives are not always drawn.

Biological target: CDK12/CycK (Homo sapiens, UniProt Q9NYV4)
Experiment: Inhibition of CDK12 (ADP-Glo kinase assay)
Assay type: biochemical
Details: 60 nM CDK12/CycK, 30 minutes pre-incubation, 1 μM ATP, 0.5 μM RBER-IRStide substrate, 1 h at 25° C., read-out: CDK12/cyclin K IC50
Method: Assay buffer comprised 50 mM HEPES pH 7.5, 1 mM DTT, 20 mM MgCl2, 3 mM MnCl2, 3 μM Na3VO4 and 50 μg/ml PEG8000. Kinase reactions were carried out in 384-well Optiplates™ (PerkinElmer 6007299). Test compounds were dissolved & diluted in dimethyl sulfoxide (DMSO) and cross diluted into assay buffer with a final DMSO concentration of 1% (v/v) in the assay. Test compounds (or 1% DMSO in control and blank wells) were pre-incubated with 60 nM CDK12/CycK for 30 minutes. After this time 1 μM Adenosine-5′-triphosphate (ATP) and 0.5 μM RBER-IRStide substrate (ProQinase 0863-0000-1) were added to commence the kinase reaction. Incubations were carried out for 1 h at 25° C. with kinase activity determined using the ADP-Glo™ reagent from Promega according to the manufacturer's instructions. Light generated is proportional to kinase activity and measured using a luminometer (EnVision, PerkinElmer). The signal obtained in the blank wells (containing no kinase) was subtracted from all other wells and IC50 values were determined by fitting a sigmoidal curve to % inhibition of control versus Log10 compound concentration.

Sequence of CDK12/CycK (Q9NYV4 whole entry): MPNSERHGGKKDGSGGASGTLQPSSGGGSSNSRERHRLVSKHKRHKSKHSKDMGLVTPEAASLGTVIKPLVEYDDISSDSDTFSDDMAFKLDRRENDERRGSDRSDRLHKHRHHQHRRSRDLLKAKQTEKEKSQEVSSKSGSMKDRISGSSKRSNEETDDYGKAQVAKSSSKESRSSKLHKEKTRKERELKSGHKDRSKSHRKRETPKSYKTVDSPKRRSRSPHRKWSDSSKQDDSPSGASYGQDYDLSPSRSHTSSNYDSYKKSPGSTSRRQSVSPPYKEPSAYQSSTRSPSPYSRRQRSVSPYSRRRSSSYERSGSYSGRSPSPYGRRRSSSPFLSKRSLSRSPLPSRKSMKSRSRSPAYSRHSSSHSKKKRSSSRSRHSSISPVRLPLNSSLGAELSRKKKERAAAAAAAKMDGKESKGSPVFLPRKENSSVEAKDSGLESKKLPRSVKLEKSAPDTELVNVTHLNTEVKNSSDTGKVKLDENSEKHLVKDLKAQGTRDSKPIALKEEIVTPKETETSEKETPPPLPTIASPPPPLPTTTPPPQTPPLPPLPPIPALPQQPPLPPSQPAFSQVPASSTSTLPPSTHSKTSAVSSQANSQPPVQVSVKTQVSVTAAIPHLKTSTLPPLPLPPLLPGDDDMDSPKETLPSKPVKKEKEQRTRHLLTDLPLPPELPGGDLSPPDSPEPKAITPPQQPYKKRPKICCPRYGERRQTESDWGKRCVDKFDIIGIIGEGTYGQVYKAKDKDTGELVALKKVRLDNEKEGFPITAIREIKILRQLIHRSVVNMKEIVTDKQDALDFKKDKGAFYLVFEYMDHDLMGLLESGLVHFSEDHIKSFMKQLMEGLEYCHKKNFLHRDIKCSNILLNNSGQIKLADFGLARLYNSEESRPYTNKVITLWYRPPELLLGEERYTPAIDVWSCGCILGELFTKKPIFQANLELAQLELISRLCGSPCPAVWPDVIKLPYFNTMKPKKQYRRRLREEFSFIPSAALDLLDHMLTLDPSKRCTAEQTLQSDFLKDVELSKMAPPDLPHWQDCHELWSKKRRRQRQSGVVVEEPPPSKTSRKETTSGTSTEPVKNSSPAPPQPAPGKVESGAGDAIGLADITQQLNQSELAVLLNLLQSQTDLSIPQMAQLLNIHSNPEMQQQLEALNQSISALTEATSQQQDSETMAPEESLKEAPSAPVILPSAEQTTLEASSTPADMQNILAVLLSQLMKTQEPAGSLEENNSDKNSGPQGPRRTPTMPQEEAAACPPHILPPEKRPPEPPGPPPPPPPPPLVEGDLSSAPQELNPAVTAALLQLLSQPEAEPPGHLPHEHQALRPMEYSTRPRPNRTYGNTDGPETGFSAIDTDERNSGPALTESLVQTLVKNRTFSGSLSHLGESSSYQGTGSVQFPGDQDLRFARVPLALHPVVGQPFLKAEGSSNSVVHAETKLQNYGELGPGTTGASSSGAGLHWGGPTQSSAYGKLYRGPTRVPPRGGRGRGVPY
Sequence of CDK12/CycK (O75909 whole entry partner): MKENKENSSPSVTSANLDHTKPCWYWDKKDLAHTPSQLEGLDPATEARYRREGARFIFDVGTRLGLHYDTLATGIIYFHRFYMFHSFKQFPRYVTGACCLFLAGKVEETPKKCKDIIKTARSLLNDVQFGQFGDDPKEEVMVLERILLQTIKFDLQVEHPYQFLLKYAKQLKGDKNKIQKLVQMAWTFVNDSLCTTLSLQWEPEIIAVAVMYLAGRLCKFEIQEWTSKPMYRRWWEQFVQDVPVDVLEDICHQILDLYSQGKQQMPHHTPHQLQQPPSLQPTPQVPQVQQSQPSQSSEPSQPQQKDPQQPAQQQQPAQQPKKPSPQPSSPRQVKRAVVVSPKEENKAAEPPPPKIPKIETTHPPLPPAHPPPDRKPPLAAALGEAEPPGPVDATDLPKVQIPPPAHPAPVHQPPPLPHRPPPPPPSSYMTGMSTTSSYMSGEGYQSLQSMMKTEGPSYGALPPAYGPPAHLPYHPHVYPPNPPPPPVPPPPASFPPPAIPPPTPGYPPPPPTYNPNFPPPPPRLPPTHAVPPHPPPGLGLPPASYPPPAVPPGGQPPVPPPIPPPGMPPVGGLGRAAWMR

IC50 [nM] | Structure (SMILES)
1000 to 30000 | COc1ccc(Cn2cc(-c3ccnc4[nH]ccc34)nn2)cc1 [Example 135, 4-(1-(4-Methoxybenzyl)-1H-1,2,3-triazol-4-yl)-1H-pyrrolo[2,3-b]pyridine]
100 to 1000 | CN(C)C/C=C/C(=O)N1CCCC[C@@H]1C(=O)NCCc1cc2c(-c3cnn4ncccc34)ccnc2[nH]1 [Example 88, (R,E)-1-(4-(Dimethylamino)but-2-enoyl)-N-(2-(4-(pyrazolo[1,5-b]pyridazin-3-yl)-1H-pyrrolo[2,3-b]pyridin-2-yl)ethyl)piperidine-2-carboxamide Formate Salt]
1000 to 30000 | C=CC(=O)NCc1ccc(C(=O)NCc2cc3c(-c4cnn5ncccc45)ccnc3[nH]2)cc1 [Example 189, 4-(Acrylamidomethyl)-N-((4-(pyrazolo[1,5-b]pyridazin-3-yl)-1H-pyrrolo[2,3-b]pyridin-2-yl)methyl)benzamide]
1000 to 30000 | CC(C)CNC(=O)c1cc2c(-c3cnn4ncccc34)ccnc2[nH]1 [Example 4, N-Isobutyl-4-(pyrazolo[1,5-b]pyridazin-3-yl)-1H-pyrrolo[2,3-b]pyridine-2-carboxamide]
< 100 | CCC(=O)Nc1cccc(C(=O)N2CCC(c3cc4c(-c5cnn6ncccc56)ccnc4[nH]3)C2)c1 (stereo not drawn) [Example 173, N-(3-(3-(4-(Pyrazolo[1,5-b]pyridazin-3-yl)-1H-pyrrolo[2,3-b]pyridin-2-yl)pyrrolidine-1-carbonyl)phenyl)propionamide]
100 to 1000 | C=CC(=O)N(C)c1ccc(C(=O)NCc2cc3c(-c4cnn5ncccc45)ccnc3[nH]2)cc1 [Example 190, 4-(N-Methylacrylamido)-N-((4-(pyrazolo[1,5-b]pyridazin-3-yl)-1H-pyrrolo[2,3-b]pyridin-2-yl)methyl)benzamide]
100 to 1000 | O=C(NCCc1cc2c(-c3cnn4ncccc34)ccnc2[nH]1)[C@@H]1CCCN1 [Example 82, (S)—N-(2-(4-(pyrazolo[1,5-b]pyridazin-3-yl)-1H-pyrrolo[2,3-b]pyridin-2-yl)ethyl)pyrrolidine-2-carboxamide]
1000 to 30000 | COCCNC(=O)c1cc2c(-c3cnn4ncccc34)ccnc2[nH]1 [Example 3, N-(2-Methoxyethyl)-4-(pyrazolo[1,5-b]pyridazin-3-yl)-1H-pyrrolo[2,3-b]pyridine-2-carboxamide]
< 100 | CN(C)C/C=C/C(=O)Nc1cccc(C(=O)N2CCC(c3cc4c(-c5cnn6ncccc56)ccnc4[nH]3)C2)c1 (stereo not drawn) [Example 142, (E)-4-(Dimethylamino)-N-(3-(3-(4-(pyrazolo[1,5-b]pyridazin-3-yl)-1H-pyrrolo[2,3-b]pyridin-2-yl)pyrrolidine-1-carbonyl)phenyl)but-2-enamide]
< 100 | C=CC(=O)N1CCC1C(=O)NCCc1cc2c(-c3cnn4ncccc34)ccnc2[nH]1 (single isomer, unassigned) [Example 40]
< 100 | C=CC(=O)Nc1ccc(C(=O)N2CC[C@H](c3cc4c(-c5cnn6ncccc56)ccnc4[nH]3)C2)cc1 [Example 150]
< 100 | C=CC(=O)N1CCC[C@H]1C(=O)N1CCC(c2cc3c(-c4cnn5ncccc45)ccnc3[nH]2)C1 (stereo partly drawn) [Example 153, 1-((2S)-2-(3-(4-(Pyrazolo[1,5-b]pyridazin-3-yl)-1H-pyrrolo[2,3-b]pyridin-2-yl)pyrrolidine-1-carbonyl)pyrrolidin-1-yl)prop-2-en-1-one]
100 to 1000 | C=CC(=O)N1CCC(C(=O)NCCc2cc3c(-c4cnn5ncccc45)ccnc3[nH]2)CC1 [Example 77, 1-Acryloyl-N-(2-(4-(pyrazolo[1,5-b]pyridazin-3-yl)-1H-pyrrolo[2,3-b]pyridin-2-yl)ethyl)piperidine-4-carboxamide]
1000 to 30000 | C=CC(=O)N1CCC2(CCCN(Cc3cc4c(-c5cnn6ncccc56)ccnc4[nH]3)C2)C1 (stereo not drawn) [Example 198, 1-(7-((4-(Pyrazolo[1,5-b]pyridazin-3-yl)-1H-pyrrolo[2,3-b]pyridin-2-yl)methyl)-2,7-diazaspiro[4.5]decan-2-yl)prop-2-en-1-one]
1000 to 30000 | Cc1cc(-c2cnn3ncccc23)c2cc[nH]c2n1 [Example 1, 3-(6-Methyl-1H-pyrrolo[2,3-b]pyridin-4-yl)pyrazolo[1,5-b]pyridazine]
100 to 1000 | NCCc1cc2c(-c3cnn4ncccc34)c(Cl)cnc2[nH]1 [Example 101, 2-(5-chloro-4-(pyrazolo[1,5-b]pyridazin-3-yl)-1H-pyrrolo[2,3-b]pyridin-2-yl)ethan-1-amine]
100 to 1000 | O=C(NCCc1cc2c(-c3cnn4ncccc34)ccnc2[nH]1)[C@@H]1CCCN1S(=O)(=O)c1ccccc1 [Example 89, (S)-1-(phenylsulfonyl)-N-(2-(4-(pyrazolo[1,5-b]pyridazin-3-yl)-1H-pyrrolo[2,3-b]pyridin-2-yl)ethyl)pyrrolidine-2-carboxamide]
1000 to 30000 | Cc1cnc2[nH]ccc2c1-c1cnn2ncccc12 [Example 9, 3-(5-Methyl-1H-pyrrolo[2,3-b]pyridin-4-yl)pyrazolo[1,5-b]pyridazine]
1000 to 30000 | c1cnn2ncc(-c3ccnc4[nH]c(CN5CCOCC5)cc34)c2c1 [Example 12, 4-((4-(Pyrazolo[1,5-b]pyridazin-3-yl)-1H-pyrrolo[2,3-b]pyridin-2-yl)methyl)morpholine]
< 100 | CN(C)C/C=C/C(=O)N1CC[C@@H](C(=O)N2CCC(c3cc4c(-c5cnn6ncccc56)ccnc4[nH]3)CC2)C1 [Example 67, (R,E)-4-(Dimethylamino)-1-(3-(4-(4-(pyrazolo[1,5-b]pyridazin-3-yl)-1H-pyrrolo[2,3-b]pyridin-2-yl)piperidine-1-carbonyl)pyrrolidin-1-yl)but-2-en-1-one]
100 to 1000 | CN1CCN(Cc2cc3c(-c4cnn5ncccc45)ccnc3[nH]2)CC1 [Example 16, 3-(2-((4-Methylpiperazin-1-yl)methyl)-1H-pyrrolo[2,3-b]pyridin-4-yl)pyrazolo[1,5-b]pyridazine]
1000 to 30000 | CN(C)CCNCc1cc2c(-c3cnn4ncccc34)ccnc2[nH]1 [Example 17, N1,N1-Dimethyl-N2-((4-(pyrazolo[1,5-b]pyridazin-3-yl)-1H-pyrrolo[2,3-b]pyridin-2-yl)methyl)ethane-1,2-diamine]
100 to 1000 | CCNCCc1cc2c(-c3cnn4ncccc34)ccnc2[nH]1 [Example 31, N-ethyl-2-(4-(pyrazolo[1,5-b]pyridazin-3-yl)-1H-pyrrolo[2,3-b]pyridin-2-yl)ethan-1-amine]
1000 to 30000 | COc1cnn2ncc(-c3ccnc4[nH]ccc34)c2c1 [Example 23, 5-Methoxy-3-(1H-pyrrolo[2,3-b]pyridin-4-yl)pyrazolo[1,5-b]pyridazine]
< 100 | C=CC(=O)Nc1ccc(C(=O)N(C)Cc2cc3c(-c4cnn5ncccc45)ccnc3[nH]2)cc1 [Example 185, 4-Acrylamido-N-methyl-N-((4-(pyrazolo[1,5-b]pyridazin-3-yl)-1H-pyrrolo[2,3-b]pyridin-2-yl)methyl)benzamide]
1000 to 30000 | C=CC(=O)N1CCC[C@@H]1C(=O)NCCc1cc2c(-c3ccnn3C)ccnc2[nH]1 [Example 52, (R)-1-Acryloyl-N-(2-(4-(1-methyl-1H-pyrazol-5-yl)-1H-pyrrolo[2,3-b]pyridin-2-yl)ethyl)pyrrolidine-2-carboxamide]
< 100 | O=C(CCl)Nc1ccccc1C(=O)N1CCC(c2cc3c(-c4cnn5ncccc45)ccnc3[nH]2)C1 (stereo not drawn) [Example 169, 2-Chloro-N-(2-(3-(4-(pyrazolo[1,5-b]pyridazin-3-yl)-1H-pyrrolo[2,3-b]pyridin-2-yl)pyrrolidine-1-carbonyl)phenyl)acetamide]
